Source: patent US8673908B2, “Kynurenine production inhibitor” (Kyowa Hakko Kirin Co., Ltd., priority 2008, dated 2014)

Test system: kynurenine production in IFN-γ-treated KATO-III cells
Test: Inhibitory activity on kynurenine production (Test Example 1)
Assay type: cell-based
Details: Homo sapiens, IFN-γ treatment, culture for 96 hours, read-out: IC50 value, inhibition of kynurenine production
Procedure: This assay was performed according to a method modified from the method described in the Journal of Biological Chemistry (J. Biol. Chem.), vol. 263, pp. 2041-2048 (1988). Culture of KATO-III derived from human gastric cancer cells was performed by use of RPMI 1640 (GIBCO, 11875) supplemented with 10 vol % FBS (GIBCO, 10091-148, lot. 665285). 1 μL of a DMSO solution of the test substance was diluted with 199 μL of the culture medium, and the diluted solution was added to wells of a 384 well plate (10 μL/well). Then, IFN-γ (Sigma, 1-3265) was added to the culture medium so that the concentration of IFN-γ was 31.25 ng/mL, and the KATO-III cells were suspended at 50,000 cells/ml, in the culture medium. 40 μL of the suspension was added to each well (2,000 cells/well), and culture of the KATO-III cells was performed at 37° C. under a 5% CO2 atmosphere for 96 hours. The final concentration of DMSO was limited to 0.1 vol % or less so that DMSO itself might not affect the kynurenine concentration measured by this assay. After the culture, 10 μL of a 30 w/v % aqueous trichloroacetic acid solution was added to each well, and incubation was performed at 65° C. for 30 minutes. The plate was centrifuged at 2,500×g for 5 minutes, and then 15 μL of the supernatant in each well was transferred into another 384 well plate. To each of the transferred supernatants, 15 μL of a 2 w/v % solution of p-dimethylaminobenzaldehyde in acetic acid was added, incubation was performed at 65° C. for 20 minutes, and then the absorbance at 480 nm was measured.
[formula] Sample: the absorbance value of the well to which a DMSO solution containing the test substance was added and in which cells were treated with IFN-γ. Blank: the absorbance value of the well to which only DMSO, not the test substance was added and in which cells were treated with IFN-γ. Control: the absorbance value of the well to which only DMSO, not the test substance was added and in which cells were not treated with IFN-γ.
In this assay, expression of IDO in KATO-III cells is induced by IFN-γ treatment and then kynurenine in the culture medium is quantified. It is known that the kynurenine concentration in a culture medium increases in proportion to the enzymatic activity of intracellular IDO (for example, the Journal of Biological Chemistry (J. Biol. Chem.), vol. 263, pp. 2041-2048 (1988)). […] It is known that kynurenine production is inhibited by IDO inhibitors (for example, the Journal of Clinical Investigation (J. Clin. Invest.), vol. 117, No. 5, pp. 1147-1154 […]), and thus it is expected that Compound (I) also has an inhibitory effect on IDO.

IC50, 1000 to 10000 nM:
CC(C)(Oc1nc2ccccc2nc1NS(=O)(=O)c1ccccc1Cl)c1cccnc1 [Compound 91, 2-chloro-N-{3-[1-methyl-1-(pyridin-3-yl)ethoxy]quinoxalin-2-yl}benzenesulfonamide]

IC50, < 1000 nM:
O=S(=O)(Nc1nc2ccccc2nc1OC(c1cccnc1)C1(F)CCOCC1)c1ccccc1Cl (centres unmarked) [Compound 78, 2-chloro-N-{3-[4-fluorotetrahydropyran-4-yl(pyridin-3-yl)-methoxy]quinoxalin-2-yl}benzenesulfonamide]
CC(C)(C(Oc1nc2ccccc2nc1NS(=O)(=O)c1ccccc1Cl)c1cccnc1)S(C)(=O)=O (centres unmarked) [Compound 80, 2-chloro-N-{3-[2-methanesulfonyl-2-methyl-1-(pyridin-3-yl)-propoxy]quinoxalin-2-yl}benzenesulfonamide]
N#Cc1cccc(C(Oc2nc3ccccc3nc2NS(=O)(=O)c2ccccc2Cl)C(F)(F)F)c1 (centres unmarked) [Compound 82, 2-chloro-N-{3-[2,2,2-trifluoro-1-(3-cyanophenyl)ethoxy]-quinoxalin-2-yl}benzenesulfonamide]
O=S(=O)(Nc1nc2ccccc2nc1OC(c1cccc(F)c1)C(F)(F)F)c1ccccc1Cl (centres unmarked) [Compound 83, 2-chloro-N-{3-[2,2,2-trifluoro-1-(3-fluorophenyl)ethoxy]-quinoxalin-2-yl}benzenesulfonamide]
O=S(=O)(Nc1nc2ccccc2nc1OC(c1cccc(Cl)c1)C(F)(F)F)c1ccccc1Cl (centres unmarked) [Compound 84, 2-chloro-N-{3-[2,2,2-trifluoro-1-(3-chlorophenyl)ethoxy]-quinoxalin-2-yl}benzenesulfonamide]
O=S(=O)(Nc1nc2ccccc2nc1OC(c1ccc(Cl)nc1)C(F)(F)F)c1ccccc1Cl (centres unmarked) [Compound 85, 2-chloro-N-{3-[2,2,2-trifluoro-1-(6-chloropyridin-3-yl)-ethoxy]quinoxalin-2-yl}benzenesulfonamide]
O=S(=O)(Nc1nc2ccccc2nc1OC(c1ccc(Br)nc1)C(F)(F)F)c1ccccc1Cl (centres unmarked) [Compound 86, 2-chloro-N-{3-[2,2,2-trifluoro-1-(6-bromopyridin-3-yl)-ethoxy]quinoxalin-2-yl}benzenesulfonamide]
Cc1nn(C)c(Cl)c1S(=O)(=O)Nc1nc2ccccc2nc1OC(c1cccnc1)C1(F)CCOCC1 (centres unmarked) [Compound 87, 5-chloro-1,3-dimethyl-N-{3-[4-fluorotetrahydropyran-4-yl-(pyridin-3-yl)methoxy]quinoxalin-2-yl}-1H-pyrazole-4-sulfonamide]
Cc1noc(C)c1S(=O)(=O)Nc1nc2ccccc2nc1OC(c1cccnc1)C1(F)CCOCC1 (centres unmarked) [Compound 88, 3,5-dimethyl-N-{3-[4-fluorotetrahydropyran-4-yl(pyridin-3-yl)methoxy]quinoxalin-2-yl}isoxazole-4-sulfonamide]
O=S(=O)(Nc1nc2ccccc2nc1OC(c1ccc(C2CC2)nc1)C(F)(F)F)c1ccccc1Cl (centres unmarked) [Compound 89, 2-chloro-N-{3-[2,2,2-trifluoro-1-(6-cyclopropylpyridin-3-yl)ethoxy]quinoxalin-2-yl}benzenesulfonamide]
O=S(=O)(Nc1nc2ccccc2nc1OC1(c2cccnc2)CCOCC1)c1ccccc1Cl [Compound 90, 2-chloro-N-{3-{[4-(pyridin-3-yl)tetrahydropyran-4-yl]oxy}-quinoxalin-2-yl}benzenesulfonamide]
O=S(=O)(Nc1nc2ccccc2nc1OC(c1ccc(N2CCCC2)nc1)C(F)(F)F)c1ccccc1Cl (centres unmarked) [Compound 93, 2-chloro-N-{3-{2,2,2-trifluoro-1-[6-(pyrrolidin-1-yl)-pyridin-3-yl]ethoxy}quinoxalin-2-yl}benzenesulfonamide]
CCCS(=O)(=O)Nc1nc2ccccc2nc1OC(c1cccnc1)C1(F)CCOCC1 (centres unmarked) [Compound 94, N-{3-[4-fluorotetrahydropyran-4-yl(pyridin-3-yl)methoxy]-quinoxalin-2-yl}propane-1-sulfonamide]
Cn1cc(C(Oc2nc3ccccc3nc2NS(=O)(=O)c2cccc(Cl)c2Cl)C(F)(F)F)cn1 (centres unmarked) [Compound 96, 2,3-dichloro-N-{3-[2,2,2-trifluoro-1-(1-methyl-1H-pyrazol-4-yl)ethoxy]quinoxalin-2-yl}benzenesulfonamide]
Cn1cncc1C(Oc1nc2ccccc2nc1NS(=O)(=O)c1cccc(Cl)c1Cl)C(F)(F)F (centres unmarked) [Compound 97, 2,3-dichloro-N-{3-[2,2,2-trifluoro-1-(1-methyl-1H-imidazol-5-yl)ethoxy]quinoxalin-2-yl}benzenesulfonamide]
O=S(=O)(Nc1nc2ccccc2nc1OC(c1cncs1)C(F)(F)F)c1cccc(Cl)c1Cl (centres unmarked) [Compound 98, 2,3-dichloro-N-{3-[2,2,2-trifluoro-1-(thiazol-5-yl)ethoxy]-quinoxalin-2-yl}benzenesulfonamide]
O=S(=O)(Nc1nc2ccccc2nc1OC(c1nccs1)C(F)(F)F)c1cccc(Cl)c1Cl (centres unmarked) [Compound 99, 2,3-dichloro-N-{3-[2,2,2-trifluoro-1-(thiazol-2-yl)ethoxy]-quinoxalin-2-yl}benzenesulfonamide]
O=S(=O)(Nc1nc2ccccc2nc1OC(c1cccs1)C(F)(F)F)c1cccc(Cl)c1Cl (centres unmarked) [Compound 100, 2,3-dichloro-N-{3-[2,2,2-trifluoro-1-(thiophen-2-yl)-ethoxy]quinoxalin-2-yl}benzenesulfonamide]
O=S(=O)(Nc1nc2ccccc2nc1OC(c1ccsc1)C(F)(F)F)c1cccc(Cl)c1Cl (centres unmarked) [Compound 101, 2,3-dichloro-N-{3-[2,2,2-trifluoro-1-(thiophen-3-yl)-ethoxy]quinoxalin-2-yl}benzenesulfonamide]
O=S(=O)(Nc1nc2ccccc2nc1OC(C1CCCCC1)C(F)(F)F)c1cccc(Cl)c1Cl (centres unmarked) [Compound 102, 2,3-dichloro-N-[3-(1-cyclohexyl-2,2,2-trifluoroethoxy)-quinoxalin-2-yl]benzenesulfonamide]
Cn1c(C(Oc2nc3ccccc3nc2NS(=O)(=O)c2cccc(Cl)c2Cl)C(F)(F)F)cc2ccccc21 (centres unmarked) [Compound 103, 2,3-dichloro-N-{3-[2,2,2-trifluoro-1-(1-methyl-1H-indol-2-yl)ethoxy]quinoxalin-2-yl}benzenesulfonamide]
O=S(=O)(Nc1nc2ccccc2nc1OC(c1cc2ccccc2o1)C(F)(F)F)c1ccccc1Cl (centres unmarked) [Compound 104, 2-chloro-N-{3-[2,2,2-trifluoro-1-(benzofuran-2-yl)ethoxy]-quinoxalin-2-yl}benzenesulfonamide]
Cc1nc(C)c(C(Oc2nc3ccccc3nc2NS(=O)(=O)c2ccccc2Cl)C(F)(F)F)s1 (centres unmarked) [Compound 106, 2-chloro-N-{3-[2,2,2-trifluoro-1-(2,4-dimethylthiazol-5-yl)ethoxy]quinoxalin-2-yl}benzenesulfonamide]
Cc1ncsc1C(Oc1nc2ccccc2nc1NS(=O)(=O)c1ccccc1Cl)C(F)(F)F (centres unmarked) [Compound 107, 2-chloro-N-{3-[2,2,2-trifluoro-1-(4-methylthiazol-5-yl)-ethoxy]quinoxalin-2-yl}benzenesulfonamide]
CCn1cncc1C(Oc1nc2ccccc2nc1NS(=O)(=O)c1ccccc1Cl)C(F)(F)F (centres unmarked) [Compound 108, 2-chloro-N-{3-[2,2,2-trifluoro-1-(1-ethyl-1H-imidazol-5-yl)ethoxy]quinoxalin-2-yl}benzenesulfonamide]
O=S(=O)(Nc1nc2ccccc2nc1OC(c1ccco1)C(F)(F)F)c1ccccc1Cl (centres unmarked) [Compound 109, 2-chloro-N-{3-[2,2,2-trifluoro-1-(furan-2-yl)ethoxy]-quinoxalin-2-yl}benzenesulfonamide]
O=S(=O)(Nc1nc2ccccc2nc1OC(c1cnc(Cl)s1)C(F)(F)F)c1ccccc1Cl (centres unmarked) [Compound 110, 2-chloro-N-{3-[2,2,2-trifluoro-1-(2-chlorothiazol-5-yl)-ethoxy]quinoxalin-2-yl}benzenesulfonamide]
O=S(=O)(Nc1nc2ccccc2nc1OC(c1cncn1CC1CC1)C(F)(F)F)c1ccccc1Cl (centres unmarked) [Compound 111, 2-chloro-N-{3-[2,2,2-trifluoro-1-(1-cyclopropylmethyl-1H-imidazol-5-yl)ethoxy]quinoxalin-2-yl}benzenesulfonamide]
